This note sets out measurements from patent EP4782453A1 (Beyang Therapeutics Co., Ltd., priority 2023, dated 2025).

For the first assay, the target named is T1, Menin-MLL (Homo sapiens, UniProt O00255).
T1 construct: His-Menin (M1-L615 end); purchased BIORTUS BP9210
T1 sequence (O00255 1-615 isoform O00255-1): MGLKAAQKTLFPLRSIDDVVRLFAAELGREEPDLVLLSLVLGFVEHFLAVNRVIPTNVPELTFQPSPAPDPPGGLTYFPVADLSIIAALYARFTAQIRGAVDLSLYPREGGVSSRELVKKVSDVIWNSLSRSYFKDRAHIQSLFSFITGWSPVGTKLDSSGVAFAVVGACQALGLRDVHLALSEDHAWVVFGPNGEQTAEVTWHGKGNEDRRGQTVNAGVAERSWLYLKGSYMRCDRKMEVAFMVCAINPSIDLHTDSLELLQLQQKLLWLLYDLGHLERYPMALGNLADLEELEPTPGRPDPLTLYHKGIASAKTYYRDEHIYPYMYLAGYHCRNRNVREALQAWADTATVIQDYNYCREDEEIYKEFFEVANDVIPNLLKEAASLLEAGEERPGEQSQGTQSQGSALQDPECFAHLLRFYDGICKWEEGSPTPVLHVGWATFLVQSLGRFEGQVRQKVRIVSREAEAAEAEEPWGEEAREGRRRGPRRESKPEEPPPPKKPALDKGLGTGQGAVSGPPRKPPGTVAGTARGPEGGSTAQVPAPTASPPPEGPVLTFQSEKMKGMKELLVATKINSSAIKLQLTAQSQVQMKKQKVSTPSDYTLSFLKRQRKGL
Put plainly: Inhibitory activity against Menin-MLL binding (fluorescence polarization). The following applies: Menin-MLL IC50, fluorescence polarization; 150 nM His-Menin, 15 nM FITC-MLL; 25°C for 60 min. As to the method:
• His-Menin (M1-L615 end), purchased from BIORTUS, Catalog Number: BP9210; and • FITC-MLL4-43, purchased from GenScript, Catalog Number: C491HFF190-3/PE1324.
In a 10 µL reaction solution (20 mM HEPES, pH 7.5, 50 mM NaCl, 1 mM DTT, 0.01% BSA) containing any compound from the examples, 150 nM His-Menin was added to a 384-well plate (Corning, Model: 4514). Each concentration was set up in duplicate wells. After centrifugation at 1000 RPM for 1 min, the plate was incubated at 25°C for 15 min. Then, 15 nM […] (20 mM HEPES, pH 7.5, 50 mM NaCl, 1 mM DTT, 0.01% BSA) was added to a 384-well plate. After centrifugation at 1000 RPM for 1 min, the reaction proceeded at 25°C for 60 min. Changes in fluorescence polarization were measured using a plate reader (PerkinElmer, Envision 2104). Based on the measured signals, the binding inhibition rate of the compound at each concentration was calculated, and the IC50 (half-maximal inhibitory concentration) of the compound was determined using statistical analysis software GraphPad Prism (GraphPad Software, Inc.) by means of a nonlinear fitting formula: 4-Parameter Logistic Model or Sigmoidal Dose-Response Model: Y = Bottom + (Top−Bottom)/(1 + 10^((LogIC50−X) × Hill Slope)), [formula] in which X indicates the logarithm of compound concentration, Y indicates a fluorescence polarization mP value, and Top and Bottom indicate the maximum and minimum readouts of fluorescence polarization mP values. Table 1: Inhibitory Activity of Compounds Against Menin-MLL Binding
As to `CCN(C(=O)c1cc(F)ccc1-n1c(=O)n(CC2CN(C(CCCN3CCN(CCO)CC3)C(C)C)C2)c2c(C)cncc21)C(C)C` (centres unmarked) [Example 415, N-ethyl-5-fluoro-2-{1-[(1-{6-[4-(2-hydroxyethyl)piperazin-1-yl]-2-methylhexan-3-yl}azacyclobutan-3-yl)methyl]-7-methyl-2-oxo-1H,2H,3H-imidazo[4,5-c]pyridin-3-yl} N-(isopropyl)benzamide], the IC50 was found to be 160 nM.

In the case of `CCN(C(=O)c1cc(F)ccc1-c1cc(C2CN(C(=O)C3NC4CCC3CC4)C2)cn2c(C)nc(Cl)c12)C(C)C` [Example 108, 2-(1-chloro-3-methyl-6-{1-[(1R,3S,4S)-2-azabicyclo[2.2.2]octan-3-carbonyl]azacyclobutan-3-yl}imidazo[1,5-a]pyridin-8-yl)-N-ethyl-5-fluoro-N-(isopropyl)benzamide], the IC50 was 7.2 nM.

Take `CCN(C(=O)c1cc(F)ccc1-c1cc(C2=CCN(C(=O)C3NC4CCC3CC4)CC2)c2ccncn12)C(C)C` [Example 113, N-ethyl-5-fluoro-N-(isopropyl)-2-(5-{1-[(1R,3S,4S)-2-azabicyclo[2.2.2]octan-3-carbonyl]-1,2,3,6-tetrahydropyridin-4-yl}pyrrolo[1,2-c]pyrimidin-7-yl)benzamide]: the half-inhibitory concentration (IC50) was 201 nM.

`CCS(=O)(=O)N(C)[C@H]1CC[C@H](CN2CC(c3cc(-c4ccc(F)cc4C(=O)N4CCOC[C@H]4C)c4cnn(C)c4c3)C2)CC1` [Example 174, N-methyl-N-[(1r,4r)-4-{[3-(4-{4-fluoro-2-[(3R)-3-methylmorpholin-4-carbonyl]phenyl}-1-methyl-1H-indazol-6-yl)azacyclobutan-1-yl]methyl}cyclohexyl]ethan-1-sulfonamide] had an IC50 of 125 nM.

`CCN(C(=O)c1cc(F)ccc1-c1cc(C2=CCN(C(=O)C3NC4CCC3CC4)CC2)n2ccncc12)C(C)C` [Example 110, N-ethyl-5-fluoro-N-(isopropyl)-2-(6-{1-[(1R,3S,4S)-2-azabicyclo[2.2.2]octan-3-carbonyl]-1,2,3,6-tetrahydropyridin-4-yl}pyrrolo[1,2-a]pyrazin-8-yl)benzamide]: the IC50 was found to be 25 nM.

`CCN(C(=O)c1cc(F)ccc1-c1cc(C2CN(C(=O)C3NC4CCC3CC4)C2)cn2c(C)nc(F)c12)C(C)C` [Example 107, N-ethyl-5-fluoro-2-(1-fluoro-3-methyl-6-{1-[(1R,3S,4S)-2-azabicyclo[2.2.2]octan-3-carbonyl]azacyclobutan-3-yl}imidazo[1,5-a]pyridin-8-yl)-N-(isopropyl)benzamide] had an IC50 of 4.5 nM.

Turning to `Cc1nc(F)c2c(-c3ccc(F)cc3C(=O)N3CCOCC3C)cc(C3CN(C(C)C4CCN(C(=O)C5CC5F)CC4)C3)cn12` (centres unmarked) [Example 301], the IC50 amounted to 9 nM.

Take `CCN(C(=O)c1cc(F)ccc1-c1cc([C@H]2CCN(C[C@H]3CC[C@H](NS(=O)(=O)CC)CC3)C2)cc2cncn12)C(C)C` [Example 25-2, N-ethyl-5-fluoro-N-isopropyl-2-{7-[(3R)-1-{[(1r,4r)-4-ethanesulfonamidocyclohexyl]methyl}pyrrolidin-3-yl]imidazo[1,5-a]pyridin-5-yl}benzamide]: the IC50 is 21 nM.

The same assay, now with this note: fluorescence polarization; 150 nM His-Menin, 15 nM FITC-MLL; 25°C for 60 min; read-out: Menin-MLL IC50.
Turning to `CCN(C(=O)c1cc(F)ccc1-c1cc(C2CN([C@H](CCCN3CCN(C)CC3)C(C)C)C2)cn2c(C)nnc12)C(C)C` [Example 360-1, N-ethyl-5-fluoro-2-(3-methyl-6-{1-[(3R)-2-methyl-6-(4-methylpiperazin-1-yl)hexan-3-yl]azacyclobutan-3-yl}-[1,2,4]triazolo[4,3-a]pyridin-8-yl)-N-(isopropyl)benzamide], the IC50 stood at 83 nM.

Consider `CCN(C(=O)c1cc(F)ccc1-c1cc(C2CN([C@H](CCCN3CC4COCC(C3)N4C(=O)OC(C)(C)C)C(C)C)C2)cn2c(C)ncc12)C(C)C` [Example 478], for which the IC50 came out at 1.1 nM.

In the case of `CCN(C(=O)c1cc(F)ccc1-c1cc(C2CCN(Cc3ccc(N4CCOC4=O)cc3)C2)cn2cncc12)C(C)C` (centres unmarked) [Example 41], the IC50 stood at 92 nM.

Turning to `CCN(C(=O)c1cc(F)ccc1-c1cc(CC2CN([C@@H](CCCN(C)CCOC)C(C)C)C2)n2c(C)cncc12)C(C)C` [Example 296-2, N-ethyl-5-fluoro-2-[6-({1-[(3S)-6-[(2-methoxyethyl)(methyl)amino]-2-methylhexan-3-yl]azacyclobutan-3-yl}methyl)-4-methylpyrrolo[1,2-a]pyrazin-8-yl]-N-(isopropyl)benzamide], the IC50 was 3 nM.

Regarding `CCN(C(=O)c1cc(F)ccc1-c1cc(N2CCN(C(=O)[C@@H]3Cc4ccccc4CN3)CC2)cn2c(C)nc(Cl)c12)C(C)C` [Example 116], the IC50 is 52 nM.

Regarding `COCC(C1CCOCC1)N1CC(c2cc(-c3ccc(F)cc3C(=O)N3CCOC[C@H]3C)c3c(F)nc(C)n3c2)C1` (stereo partly drawn) [Example 255, (3R)-4-[5-fluoro-2-(1-fluoro-6-{1-[2-methoxy-1-(oxacyclohexan-4-yl)ethyl]azacyclobutan-3-yl}-3-methylimidazo[1,5-a]pyridin-8-yl)benzoyl]-3-methylmorpholine], the 50% inhibitory concentration (IC50) turned out to be 86 nM.

For the compound `CCN(C(=O)c1cc(F)ccc1-c1cc(C2CN(C(CN3CCOCC3)C(C)C)C2)cn2c(C)ncc12)C(C)C` (centres unmarked) [Example 439, N-ethyl-5-fluoro-2-(3-methyl-6-{1-[3-methyl-1-(morpholin-4-yl)butan-2-yl]azacyclobutan-3-yl}imidazo[1,5-a]pyridin-8-yl)-N-(isopropyl)benzamide], the IC50 is 21 nM.

For the compound `CCN(C(=O)c1cc(F)ccc1-c1cc(C2CN([C@H](CN3C[C@@H](O)[C@H](O)C3)C(C)C)C2)cn2c(C)ncc12)C(C)C` [Example 446-1, 2-(6-{1-[(2S)-1-[(3R,4R)-3,4-dihydroxylpyrrolidin-1-yl]-3-methylbutan-2-yl]azacyclobutan-3-yl}-3-methylimidazo[1,5-a]pyridin-8-yl)-N-ethyl-5-fluoro-N-(isopropyl)benzamide], the IC50 came out at 7.3 nM.

For `CCN(C(=O)c1cc(F)ccc1-c1cc(C2CN([C@H](CCCN3CC4CC(C3)N4C)C(C)C)C2)cn2c(C)ncc12)C(C)C` [Example 392], the IC50 stood at 2 nM.

As for `CCN(C(=O)c1cc(F)ccc1-c1cc(C2CN([C@H](CCCN3CCN(CCO)C(=O)C3)C(C)C)C2)cn2c(C)ncc12)C(C)C` [Example 486, N-ethyl-5-fluoro-2-(6-{1-[(3R)-6-[4-(2-hydroxyethyl)-3-oxopiperazin-1-yl]-2-methylhexan-3-yl]azacyclobutan-3-yl}-3-methylimidazo[1,5-a]pyridin-8-yl)-N-(isopropyl)benzamide], the IC50 worked out at 4.2 nM.

As for `Cc1nc(F)c2c(-c3ccc(F)cc3C(=O)N3CCOC[C@H]3C)cc(C3CN([C@H](C)C4CCOCC4)C3)cn12` [Example 238-1, (3R)-4-[5-fluoro-2-(1-fluoro-3-methyl-6-{1-[(1R)-1-(oxacyclohexan-4-yl)ethyl]azacyclobutan-3-yl}imidazo[1,5-a]pyridin-8-yl)benzoyl]-3-methylmorpholine], the half-maximal inhibitory concentration (IC50) is 80 nM.

On to `CCS(=O)(=O)N1CCC(CN2CC(c3cc(-c4ccc(F)cc4C(=O)N4CCOC[C@H]4C)c4c(F)nc(C)n4c3)C2)CC1` [Example 251], for which the 50% inhibitory concentration (IC50) amounted to 106 nM.

On to `CCN(C(=O)c1cc(F)ccc1-c1cc(C2CN([C@H](C)C3CCN(C(=O)CO)CC3)C2)cn2c(C)nc(F)c12)C(C)C` [Example 284-1], for which the IC50 was found to be 39 nM.

Turning to `CCN(C(=O)c1cc(F)ccc1-c1cc(C2CN([C@H](CCCN3CCN(S(C)(=O)=O)CC3)C(C)C)C2)cn2c(C)ncc12)C(C)C` [Example 397], the IC50 was found to be 4.2 nM.

As for `CCN(C(=O)c1cc(F)ccc1-c1cc(C2CN(C(CC[C@@H]3COCCN3CCO)C(C)C)C2)cn2c(C)ncc12)C(C)C` (stereo partly drawn) [Example 469, N-ethyl-5-fluoro-2-[6-(1-{1-[(3R)-4-(2-hydroxyethyl)morpholin-3-yl]-4-methylpentan-3-yl}azacyclobutan-3-yl)-3-methylimidazo[1,5-a]pyridin-8-yl]-N-(isopropyl)benzamide], the IC50 was determined as 11 nM.
